Laboratory results: ChEMBL document CHEMBL5370674, “Optimization of mTOR Inhibitors Using Property-Based Drug Design and Free-Wilson Analysis for Improved In Vivo Efficacy” (ACS Med Chem Lett, 2023)

Tests used:
[1] = Apparent intrinsic clearance in human liver microsomes; type: ADME, Microsome; conditions: read-out: CLH(app)
[2] = Intrinsic clearance in human liver microsomes; type: ADME, Microsome; conditions: read-out: CLH
[3] = Toxicity in Balb/c Nu/Nu mouse xenografted with human A549 cells assessed as reduction in body weight at 30 mg/kg, po administrated for 14 days; type: organism-based; set-up: scale not given: the % may be the effect or the level left; conditions: in vivo, 336 h, time 14 day
[4] = tested on: A549; experiment: Antitumor activity against human A549 cells xenografted in BALB/c Nu/Nu mouse assessed as tumor growth inhibition at 30 mg/kg, po administrated for 14 days relative to control; type: functional; conditions: A549, 336 h, time 14 day, read-out: TGI
[5] = Selectivity ratio of IC50 for inhibition of PI3Kalpha (unknown origin) to IC50 for inhibition of recombinant human GST-tagged mTOR (1360 to 2549 residues) expressed in insect cells
[6] = Fraction absorbed in rat at 4 mg/kg, po; type: ADME, organism-based; conditions: in vivo, read-out: Fabs
[7] = Toxicity in Balb/c Nu/Nu mouse xenografted with human A549 cells assessed as reduction in body weight at 2 to 6 mg/kg, po administrated for 14 days; type: organism-based; set-up: scale not given: the % may be the effect or the level left; conditions: in vivo, 336 h, dose 2-6 mg/kg, time 14 day
[8] = tested on: A549; experiment: Antitumor activity against human A549 cells xenografted in BALB/c Nu/Nu mouse assessed as tumor growth inhibition at 2 mg/kg, po administrated for 14 days relative to control; type: functional; conditions: A549, 336 h, time 14 day, read-out: TGI
[9] = molecular target: Cytochrome P450 2C9 (Homo sapiens, UniProt P11712); experiment: Inhibition of CYP2C9 (unknown origin); type: ADME
[10] = molecular target: T1, Cytochrome P450 2C8 (Homo sapiens, UniProt P10632); experiment: Inhibition of CYP2C8 (unknown origin); type: ADME
T1 sequence (P10632 whole entry): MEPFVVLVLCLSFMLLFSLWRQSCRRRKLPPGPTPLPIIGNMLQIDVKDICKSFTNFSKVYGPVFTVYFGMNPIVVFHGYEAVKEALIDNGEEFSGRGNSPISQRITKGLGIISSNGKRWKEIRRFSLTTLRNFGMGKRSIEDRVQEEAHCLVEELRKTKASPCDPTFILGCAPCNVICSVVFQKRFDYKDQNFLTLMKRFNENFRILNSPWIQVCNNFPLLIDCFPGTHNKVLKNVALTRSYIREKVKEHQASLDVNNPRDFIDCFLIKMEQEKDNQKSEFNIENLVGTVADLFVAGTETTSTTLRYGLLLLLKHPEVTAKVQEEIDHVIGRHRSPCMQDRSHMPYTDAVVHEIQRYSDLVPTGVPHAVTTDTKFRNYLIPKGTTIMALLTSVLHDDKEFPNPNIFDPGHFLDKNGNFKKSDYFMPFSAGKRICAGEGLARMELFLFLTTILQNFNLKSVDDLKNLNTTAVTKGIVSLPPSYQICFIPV

[11] = molecular target: T2, Cytochrome P450 1A2 (Homo sapiens, UniProt P05177); experiment: Inhibition of CYP1A2 (unknown origin); type: ADME
T2 sequence (P05177 whole entry): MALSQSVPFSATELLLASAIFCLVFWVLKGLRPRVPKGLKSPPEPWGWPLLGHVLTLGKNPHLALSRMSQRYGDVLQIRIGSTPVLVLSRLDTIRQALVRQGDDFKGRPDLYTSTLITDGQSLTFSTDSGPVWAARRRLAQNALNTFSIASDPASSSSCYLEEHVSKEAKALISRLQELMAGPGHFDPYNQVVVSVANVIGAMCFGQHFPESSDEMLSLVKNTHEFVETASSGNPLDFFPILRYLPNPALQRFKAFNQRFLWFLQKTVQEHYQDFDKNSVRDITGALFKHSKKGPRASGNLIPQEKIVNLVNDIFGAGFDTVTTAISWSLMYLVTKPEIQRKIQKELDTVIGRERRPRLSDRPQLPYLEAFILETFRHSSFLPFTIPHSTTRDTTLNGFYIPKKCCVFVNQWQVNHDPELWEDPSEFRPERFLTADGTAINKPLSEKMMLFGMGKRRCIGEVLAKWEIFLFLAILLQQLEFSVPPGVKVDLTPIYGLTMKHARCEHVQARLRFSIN

[12] = molecular target: Cytochrome P450 2C19 (Homo sapiens, UniProt P33261); experiment: Inhibition of CYP2C19 (unknown origin); type: ADME
[13] = molecular target: Cytochrome P450 2D6 (Homo sapiens, UniProt P10635); experiment: Inhibition of CYP2D6 (unknown origin); type: ADME
[14] = molecular target: Cytochrome P450 3A4 (Homo sapiens, UniProt P08684); experiment: Inhibition of CYP3A4 (unknown origin); type: ADME
Chain of Cytochrome P450 3A4 (P08684 whole entry): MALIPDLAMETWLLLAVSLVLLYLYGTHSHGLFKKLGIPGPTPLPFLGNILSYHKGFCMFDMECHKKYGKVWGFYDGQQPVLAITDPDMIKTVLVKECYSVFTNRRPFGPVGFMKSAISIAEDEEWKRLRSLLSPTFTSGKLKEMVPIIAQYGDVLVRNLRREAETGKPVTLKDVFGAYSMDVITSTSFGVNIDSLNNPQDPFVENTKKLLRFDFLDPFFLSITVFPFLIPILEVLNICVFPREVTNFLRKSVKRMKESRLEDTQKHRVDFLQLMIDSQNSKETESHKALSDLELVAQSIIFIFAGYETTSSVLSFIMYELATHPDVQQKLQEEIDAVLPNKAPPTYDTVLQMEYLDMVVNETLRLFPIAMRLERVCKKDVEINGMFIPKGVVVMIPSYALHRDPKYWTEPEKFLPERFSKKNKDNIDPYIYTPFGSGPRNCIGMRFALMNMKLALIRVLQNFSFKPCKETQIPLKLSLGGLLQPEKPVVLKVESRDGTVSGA

Chain of Cytochrome P450 2D6 (P10635 whole entry): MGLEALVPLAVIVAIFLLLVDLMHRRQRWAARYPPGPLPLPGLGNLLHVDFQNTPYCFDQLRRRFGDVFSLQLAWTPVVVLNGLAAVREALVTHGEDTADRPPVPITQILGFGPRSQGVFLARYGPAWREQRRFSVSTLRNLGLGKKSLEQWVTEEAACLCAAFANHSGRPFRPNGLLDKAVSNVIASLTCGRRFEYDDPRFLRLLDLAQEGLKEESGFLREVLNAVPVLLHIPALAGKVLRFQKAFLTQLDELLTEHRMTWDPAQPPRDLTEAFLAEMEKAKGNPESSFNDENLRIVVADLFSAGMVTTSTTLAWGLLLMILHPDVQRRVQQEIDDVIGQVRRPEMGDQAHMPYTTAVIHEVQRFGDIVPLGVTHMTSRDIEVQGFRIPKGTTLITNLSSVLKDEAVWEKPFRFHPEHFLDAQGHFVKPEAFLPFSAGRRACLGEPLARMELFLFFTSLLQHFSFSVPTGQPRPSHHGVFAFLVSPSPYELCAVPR
Chain of Cytochrome P450 2C9 (P11712 whole entry): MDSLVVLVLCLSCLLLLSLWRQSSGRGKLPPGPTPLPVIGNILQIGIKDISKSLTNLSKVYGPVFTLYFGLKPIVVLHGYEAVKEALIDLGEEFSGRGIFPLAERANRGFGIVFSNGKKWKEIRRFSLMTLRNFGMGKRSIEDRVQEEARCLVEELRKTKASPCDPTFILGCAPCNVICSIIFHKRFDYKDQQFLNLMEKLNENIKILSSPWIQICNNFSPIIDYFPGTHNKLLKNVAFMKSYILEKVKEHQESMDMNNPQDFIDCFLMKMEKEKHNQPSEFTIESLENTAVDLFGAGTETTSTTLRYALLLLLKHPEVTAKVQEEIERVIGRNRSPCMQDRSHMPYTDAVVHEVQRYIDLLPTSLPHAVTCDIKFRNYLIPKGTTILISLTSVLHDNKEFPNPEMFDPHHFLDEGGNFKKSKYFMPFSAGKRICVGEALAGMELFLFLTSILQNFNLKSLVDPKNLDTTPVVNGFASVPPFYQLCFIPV
Chain of Cytochrome P450 2C19 (P33261 whole entry): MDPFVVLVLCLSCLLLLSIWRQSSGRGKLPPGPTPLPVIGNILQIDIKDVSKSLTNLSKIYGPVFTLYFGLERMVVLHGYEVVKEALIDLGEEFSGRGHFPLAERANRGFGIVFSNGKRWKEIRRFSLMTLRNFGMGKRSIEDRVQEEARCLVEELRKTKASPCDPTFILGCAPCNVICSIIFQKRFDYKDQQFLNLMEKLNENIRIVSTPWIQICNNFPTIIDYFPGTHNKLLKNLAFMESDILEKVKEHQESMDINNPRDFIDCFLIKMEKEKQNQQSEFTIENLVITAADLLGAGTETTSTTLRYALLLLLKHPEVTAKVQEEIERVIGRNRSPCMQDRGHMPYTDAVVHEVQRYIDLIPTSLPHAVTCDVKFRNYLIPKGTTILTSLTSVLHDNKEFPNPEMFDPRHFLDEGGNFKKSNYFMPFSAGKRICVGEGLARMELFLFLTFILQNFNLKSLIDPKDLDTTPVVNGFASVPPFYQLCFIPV

CLint scaled [1] [mL/min/kg]	Structure (SMILES)	also measured
8	Cc1ccc(-c2ncc3c(n2)N2CCOC[C@@]2(C)C(=O)N3[C@H]2CC[C@@H](O)CC2)c2cc[nH]c12	
6	C[C@@]12COCCN1c1nc(-c3cnc4[nH]ccc4c3)ncc1N(C1CCOCC1)C2=O	
32	COCCCN1C(=O)[C@]2(C)COCCN2c2nc(-c3cnc4[nH]ccc4c3)ncc21	
7	Cc1cccc2c(-c3ncc4c(n3)N3CCOC[C@@]3(C)C(=O)N4[C@H]3CC[C@@H](O)CC3)c[nH]c12	
6	Cc1cccc2c(-c3ncc4c(n3)N3CCOC[C@@]3(C)C(=O)N4C3(CCCO)CC3)c[nH]c12	
11	C[C@@]12COCCN1c1nc(-c3cnc4[nH]ccc4c3)ncc1N(C1(CCO)CC1)C2=O	
6	C[C@@]12COCCN1c1nc(-c3cccc4[nH]ccc34)ncc1N([C@H]1CC[C@@H](O)CC1)C2=O	
6	Cc1ccc(-c2ncc3c(n2)N2CCOC[C@@]2(C)C(=O)N3[C@H]2CC[C@H](O)CC2)c2cc[nH]c12	
	CC(F)(F)CN1C(=O)[C@]2(C)COCCN2c2nc(-c3ccc(NC(=O)NC4CC4)cc3)ncc21	CLint scaled [2]: < 10 mL/min/kg; Activity [3]: < 20%; inhibition in vivo at 30 mg/kg [4]: 100%; Ratio IC50 [5]: > 50
7	Cc1cccc2c(-c3ncc4c(n3)N3CCOC[C@@]3(C)C(=O)N4[C@H]3CC[C@H](O)CC3)c[nH]c12	
	C[C@@]12COCCN1c1nc(-c3cccc4[nH]ccc34)ncc1N([C@H]1CC[C@H](O)CC1)C2=O	Fa [6]: 100%; Activity [7]: < 20%; inhibition in vivo at 2 mg/kg [8]: 100%
10	C[C@@]12COCCN1c1nc(-c3cccc4[nH]ccc34)ncc1N(C1CCOCC1)C2=O	IC50 [9]: > 40 µM; IC50 [10]: > 40 µM; IC50 [11]: > 40 µM; IC50 [12]: > 40 µM; IC50 [13]: > 40 µM; IC50 [14]: > 40 µM
12	C[C@@]12COCCN1c1nc(-c3cnc4[nH]ccc4c3)ncc1N(C1CCOC1)C2=O (mixture of isomers)	

Structure (SMILES)	CLint scaled [1] [mL/min/kg]	also measured
CC(=O)N1CCC(N2C(=O)[C@]3(C)COCCN3c3nc(-c4cccc5[nH]ccc45)ncc32)CC1	6	
C[C@@]12COCCN1c1nc(-c3cnc4[nH]ccc4c3)ncc1N(C1CCN(S(C)(=O)=O)CC1)C2=O	6	
